# Measurements published in patent US20240158446A1, “CYCLIC COMPOUND HAVING SELECTIVE INHIBITORY ACTION ON KRAS OVER HRAS AND NRAS” (CHUGAI SEIYAKU KABUSHIKI KAISHA, priority 2021, published 2024).
# pKd: −log10 of the molar value.
# Key:
# [1] = target: GDP-bound NRAS wild-type protein (Homo sapiens, UniProt P01111); assay: Binding to NRAS by surface plasmon resonance (SPR), Single Cycle Kinetics; settings: SPR, GDP-bound NRAS wild-type protein vs GDP-bound KRAS wild-type protein
# [2] = target: GDP-bound KRAS wild-type protein (Homo sapiens, UniProt P01116); assay: Binding to KRAS by surface plasmon resonance (SPR), Single Cycle Kinetics; settings: SPR, Single Cycle Kinetics, GDP-bound KRAS wild-type protein; read-out: KRAS KD
# GDP-bound KRAS wild-type protein, sequence (P01116 whole entry): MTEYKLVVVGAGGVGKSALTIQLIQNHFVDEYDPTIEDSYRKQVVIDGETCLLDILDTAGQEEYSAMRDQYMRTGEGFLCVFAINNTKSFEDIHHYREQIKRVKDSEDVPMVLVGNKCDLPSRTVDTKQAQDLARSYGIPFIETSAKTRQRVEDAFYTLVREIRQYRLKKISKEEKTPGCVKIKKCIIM
# [3] = target: GDP-bound HRAS wild-type protein (Homo sapiens, UniProt P01112); assay: Binding to HRAS by surface plasmon resonance (SPR), Single Cycle Kinetics; settings: SPR, GDP-bound HRAS wild-type protein vs GDP-bound KRAS wild-type protein
# GDP-bound HRAS wild-type protein, sequence (P01112 whole entry): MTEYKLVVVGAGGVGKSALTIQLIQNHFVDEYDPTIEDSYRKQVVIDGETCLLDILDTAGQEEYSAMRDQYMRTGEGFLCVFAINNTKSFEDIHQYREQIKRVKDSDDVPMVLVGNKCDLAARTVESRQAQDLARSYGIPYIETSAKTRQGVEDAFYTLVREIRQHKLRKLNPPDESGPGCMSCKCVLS
# GDP-bound NRAS wild-type protein, sequence (P01111 whole entry): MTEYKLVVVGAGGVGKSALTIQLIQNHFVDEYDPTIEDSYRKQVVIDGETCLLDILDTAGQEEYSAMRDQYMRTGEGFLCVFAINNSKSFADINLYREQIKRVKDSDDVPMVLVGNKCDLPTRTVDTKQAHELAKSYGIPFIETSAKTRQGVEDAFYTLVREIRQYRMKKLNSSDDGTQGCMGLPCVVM
Compound,NRAS/KRAS (ratio of KD value for NRAS to KD value for KRAS) [1],pKd [2],HRAS/KRAS (ratio of KD value for HRAS to KD value for KRAS) [3]
CC[C@H](C)[C@@H]1NC(=O)[C@H](COC)N(C)C(=O)C[C@@H](C(=O)N2CCOCC2)N(C)C(=O)[C@H](C2CCCC2)N(C)C(=O)C2(CCC2)NC(=O)[C@@H]2C[C@@H](OCC(C)C)CN2C(=O)[C@H](CCc2cc(F)c(C(F)(F)F)c(F)c2)NC(=O)CN(C)C(=O)[C@H](Cc2ccc(C(F)(F)F)cc2)N2CCCCC[C@@H](C2=O)N(C)C(=O)CN(C)C1=O [PP0839],B (a compound having 3 or more and less than 10 is denoted as B),8.96,B (a compound having 3 or more and less than 10 is denoted as B)
CC[C@H](C)[C@@H]1NC(=O)[C@H](COC)N(C)C(=O)C[C@@H](C(=O)N2CCOCC2)N(C)C(=O)[C@H](C2CCCC2)N(C)C(=O)C2(CCC2)NC(=O)[C@@H]2CCN2C(=O)[C@H](CCc2cc(F)c(C(F)(F)F)c(F)c2)NC(=O)CN(C)C(=O)[C@H](Cc2ccc(C(F)(F)F)cc2)N2CCCCC[C@@H](C2=O)N(C)C(=O)CN(C)C1=O [PP0840],B (a compound having 3 or more and less than 10 is denoted as B),8.30,B (a compound having 3 or more and less than 10 is denoted as B)
CCO[C@@H]1C[C@H]2C(=O)NC3(CCCC3)C(=O)N(C)[C@@H](C3CCCC3)C(=O)N(C)[C@H](C(=O)N3CCOCC3)CC(=O)N(C)[C@@H](COC)C(=O)N[C@@H]([C@@H](C)CC)C(=O)N(C)CC(=O)N(C)[C@H]3CCCCCN(C3=O)[C@@H](Cc3ccc(C(F)(F)F)cc3)C(=O)N(C)CC(=O)N[C@@H](CCc3cc(F)c(C(F)(F)F)c(F)c3)C(=O)N2C1 [PP0841],B (a compound having 3 or more and less than 10 is denoted as B),9.14,B (a compound having 3 or more and less than 10 is denoted as B)
CCO[C@@H]1C[C@H]2C(=O)NC3(CC=CC3)C(=O)N(C)[C@@H](C3CCCC3)C(=O)N(C)[C@H](C(=O)N3CCOCC3)CC(=O)N(C)[C@@H](COC)C(=O)N[C@@H]([C@@H](C)CC)C(=O)N(C)CC(=O)N(C)[C@H]3CCCCCN(C3=O)[C@@H](Cc3ccc(C(F)(F)F)cc3)C(=O)N(C)CC(=O)N[C@@H](CCc3cc(F)c(C(F)(F)F)c(F)c3)C(=O)N2C1 [PP0842],B (a compound having 3 or more and less than 10 is denoted as B),9.22,B (a compound having 3 or more and less than 10 is denoted as B)
CCO[C@@H]1C[C@H]2C(=O)NC3(CC(F)(F)C3)C(=O)N(C)[C@@H](C3CCCC3)C(=O)N(C)[C@H](C(=O)N3CCOCC3)CC(=O)N(C)[C@@H](COC)C(=O)N[C@@H]([C@@H](C)CC)C(=O)N(C)CC(=O)N(C)[C@H]3CCCCCN(C3=O)[C@@H](Cc3ccc(C(F)(F)F)cc3)C(=O)N(C)CC(=O)N[C@@H](CCc3cc(F)c(C(F)(F)F)c(F)c3)C(=O)N2C1 [PP0843],B (a compound having 3 or more and less than 10 is denoted as B),9.28,B (a compound having 3 or more and less than 10 is denoted as B)
CCO[C@@H]1C[C@H]2C(=O)NC3(CC(C)(C)C3)C(=O)N(C)[C@@H](C3CCCC3)C(=O)N(C)[C@H](C(=O)N3CCOCC3)CC(=O)N(C)[C@@H](COC)C(=O)N[C@@H]([C@@H](C)CC)C(=O)N(C)CC(=O)N(C)[C@H]3CCCCCN(C3=O)[C@@H](Cc3ccc(C(F)(F)F)cc3)C(=O)N(C)CC(=O)N[C@@H](CCc3cc(F)c(C(F)(F)F)c(F)c3)C(=O)N2C1 [PP0844],B (a compound having 3 or more and less than 10 is denoted as B),8.92,B (a compound having 3 or more and less than 10 is denoted as B)
CC[C@H](C)[C@@H]1NC(=O)[C@H](COC)N(C)C(=O)C[C@@H](C(=O)N2CCOCC2)N(C)C(=O)[C@H](C2CCCC2)N(C)C(=O)C2(CCCC2)NC(=O)[C@@H]2CCCN2C(=O)[C@H](CCc2cc(F)c(C(F)(F)F)c(F)c2)NC(=O)CN(C)C(=O)[C@H](Cc2ccc(C(F)(F)F)cc2)N2CCCCC[C@@H](C2=O)N(C)C(=O)CN(C)C1=O [PP0845],B (a compound having 3 or more and less than 10 is denoted as B),8.66,B (a compound having 3 or more and less than 10 is denoted as B)
CC[C@H](C)[C@@H]1NC(=O)[C@H](COC)N(C)C(=O)C[C@@H](C(=O)N2CCOCC2)N(C)C(=O)[C@H](C2CCCC2)N(C)C(=O)C2(CCCC2)NC(=O)[C@@H]2CC(F)(F)CN2C(=O)[C@H](CCc2cc(F)c(C(F)(F)F)c(F)c2)NC(=O)CN(C)C(=O)[C@H](Cc2ccc(C(F)(F)F)cc2)N2CCCCC[C@@H](C2=O)N(C)C(=O)CN(C)C1=O [PP0846],B (a compound having 3 or more and less than 10 is denoted as B),9.00,B (a compound having 3 or more and less than 10 is denoted as B)
CC[C@H](C)[C@@H]1NC(=O)[C@H](COC)N(C)C(=O)C[C@@H](C(=O)N2CCOCC2)N(C)C(=O)[C@H](C2CCCC2)N(C)C(=O)C2(CCCC2)NC(=O)[C@@H]2C[C@H](O)CN2C(=O)[C@H](CCc2cc(F)c(C(F)(F)F)c(F)c2)NC(=O)CN(C)C(=O)[C@H](Cc2ccc(C(F)(F)F)cc2)N2CCCCC[C@@H](C2=O)N(C)C(=O)CN(C)C1=O [PP0847],B (a compound having 3 or more and less than 10 is denoted as B),9.55,B (a compound having 3 or more and less than 10 is denoted as B)
CCO[C@@H]1C[C@H]2C(=O)NC3(CCC3)C(=O)N(C)[C@@H](C3CCCC3)C(=O)N(C)[C@H](C(=O)N3CCOCC3)CC(=O)N(C)[C@@H](COC)C(=O)N[C@@H]([C@@H](C)CC)C(=O)N(C)CC(=O)N(C)[C@H]3CCCCCN(C3=O)[C@@H](Cc3ccc(C(F)(F)F)cc3)C(=O)N(C)CC(=O)N[C@@H](CCc3ccc(C(F)(F)F)c(F)c3)C(=O)N2C1 [PP0848],B (a compound having 3 or more and less than 10 is denoted as B),9.24,B (a compound having 3 or more and less than 10 is denoted as B)
CCO[C@@H]1C[C@H]2C(=O)NC3(CCC3)C(=O)N(C)[C@@H](C3CCCC3)C(=O)N(C)[C@H](C(=O)N3CCOCC3)CC(=O)N(C)[C@@H](COC)C(=O)N[C@@H]([C@@H](C)CC)C(=O)N(C)CC(=O)N(C)[C@H]3CCCCCN(C3=O)[C@@H](Cc3ccc(C(F)(F)F)cc3)C(=O)N(C)CC(=O)N[C@@H](CCc3ccc(C(F)(F)F)c(Cl)c3)C(=O)N2C1 [PP0849],B (a compound having 3 or more and less than 10 is denoted as B),9.34,B (a compound having 3 or more and less than 10 is denoted as B)
